A melting point compilation (Tetko et al.; mined from patent text by program, amines drawn as free bases though some values may be those of a salt)

Point of comparison: `O=S(=O)(c1ccc(CO)cc1)N1CCCC1c1ccc(F)cc1` (racemic), melting point 107 °C. Against it:
- Clc1ccc(OC2CN(C(c3ccccc3)c3ccccc3)C2)cc1 — higher, 113 to 114 °C
- COc1cc2cc(COC(C)=O)c(COC(C)=O)c(C)c2cc1OC — higher, 130 to 131 °C
- C=CCc1c2n(c3ccccc13)C(=O)C(Cc1nc[nH]c1C)CC2 (stereo not drawn) — higher, 215 to 217 °C
- CN(C)c1ncc2c(=O)n(CCN3CCCCC3)sc2n1 — higher, 128 to 129 °C
- CCc1cc(OCC(=O)O)c(C)cc1SCc1sc(-c2ccc(C(F)(F)F)cc2)nc1C — higher, 169 to 171 °C
- O=c1oc(-c2cccc(Oc3ccccc3)c2)cc(O)c1SCCc1ccccc1 — higher, 114 to 115 °C
- COCc1cnc2c(NC(=O)c3c(Cl)cccc3Cl)cccc2c1OCc1cccnc1 — higher, 174 to 176 °C
- CNC(=O)NCCSCc1csc(CN(C)C)n1 — lower, 56 to 59 °C
- CC(C)(O)c1cc(O)cc(C(C)(C)O)c1 — higher, 137 to 138 °C
- CC(c1cc(F)ccc1O)c1cc(Cl)cc(Cl)c1O (stereo not drawn) — higher, 150 °C
- CCC(Oc1ccc(CCC(=O)c2ccc(-c3ccc(C(F)(F)F)cc3)s2)c(Cl)c1Cl)C(=O)O (stereo not drawn) — higher, 169 to 171 °C
- CC(C)(OCc1cc(-c2ccc(Cl)cc2)no1)C(=O)O — higher, 130 to 134 °C
- CCCOc1cc2ccccc2c2c(=O)c(-c3ccoc3)c[nH]c12 — higher, 252 to 254 °C
- O=C1Nc2ccc(I)cc2C1=NNC(=O)C1CCN(C(=O)c2ccccc2)CC1 — higher, 160 °C
- O=[N+]([O-])c1ccc(Cn2ccnn2)cc1 — higher, 112 to 113 °C
- CCCCc1oc2ccc(N)cc2c1C(=O)c1ccc(OCCCO)cc1 — lower, 86 to 90 °C
- c1ccc(C(c2ccccc2)(c2ccccc2)N2CCc3sccc3C2)cc1 — lower, 95 °C
- CCOC(=O)CC(=O)N1C(C(=O)OC(C)(C)C)CCCN1C(=O)OCc1ccccc1 (stereo not drawn) — lower, 45 to 47 °C
- CN(C)C(=O)/C=C/CSc1nc(N)cc(Cl)n1 — higher, 173 to 176 °C
- Fc1ccc(Cn2c(NC3CCN(CCOc4nc5cccnc5s4)CC3)nc3ccccc32)cc1 — higher, 151 °C
- COCC(=O)N(c1c(C)cccc1C)C(CCO)C(=O)O (stereo not drawn) — higher, 150 to 152 °C
- CCc1nnc2c(Cl)nc3cc(OC)ccc3n12 — higher, 173 to 175 °C
- CCOC(=O)Cc1[nH]c(C(=O)c2ccccc2)c(C)c1C(=O)O — higher, 183 to 185 °C
- COC(=O)C1Cc2c(nc(C)n2-c2ccc(N(C)C)c(C)c2)CN1C(=O)C(c1ccccc1)c1ccccc1 (stereo not drawn) — higher, 165 °C
- C=CCCn1cc(Br)cnc1=O — higher, 127 to 128 °C
- CO[C@@]1(C)O[C@@H]2[C@H](OCc3ccccc3)OC[C@H](OC(=O)c3ccc([N+](=O)[O-])cc3)[C@H]2O[C@]1(C)OC — lower, 58 to 59 °C
- COCCNc1cc(C)n(COC)c(=O)c1[N+](=O)[O-] — higher, 172 to 173 °C
- CC(=O)N1N=C2C(=Cc3cccc(C(F)(F)F)c3)CS(=O)(=O)CC2C1c1cccc(C(F)(F)F)c1 (stereo not drawn) — higher, 200 to 202 °C
- O=C(Cn1cccn1)c1ccc(F)cc1F — lower, 76.4 °C
- COCC1=C(C(=O)OC)C(c2ccc(Br)cc2)C(C(=O)OC)=C(COC)N1 — higher, 162 to 163 °C
- CS(=O)(=O)O[C@H]1C[C@@H](C(=O)OCc2ccccc2)N(S(C)(=O)=O)C1 — lower, 91 to 92 °C
- O=C1NCC(Cc2ccccc2)C2=C1N=C1N=C(N3CCOCC3)NN1C2 (stereo not drawn) — higher, 315 to 317 °C
- CC(C)(C)OC(=O)CC(Cc1ccccc1)NC(=O)C1Cc2ccccc2N1S(=O)(=O)c1ccc(-c2ccc(F)cc2)cc1 (stereo not drawn) — lower, 67 to 73 °C
- Cc1cc(C2(C(F)(F)F)ON=C(c3ccc(F)cc3)O2)ccc1NC(=O)c1cccc(I)c1C(=O)NC(C)C (stereo not drawn) — not separable, 99 to 112 °C
- COc1cc(CC(=O)O)ccc1OCCNC(=O)C1Cc2ccccc2N1S(=O)(=O)c1ccc(-c2cc(C(F)(F)F)ccc2Cl)cc1 (stereo not drawn) — lower, 74 to 76 °C
- Cc1c(C(=O)Nc2ccc(N3CCC(O)CC3)c(C#N)c2)c2cc(F)ccc2n1CC(=O)O — higher, > 250 °C
- CC1=CSC(C)C(=O)N1 (stereo not drawn) — lower, 78 to 80 °C
- CCN(CC)C(=O)n1ccc(S(=O)(=O)c2c(C)cccc2OC)n1 — lower, 71 to 73 °C
- Cc1oc(C=Cc2cccc(C(F)(F)F)c2)nc1CC(=O)O — higher, 157 to 158 °C
- Cn1c(C(F)(F)F)cc(=O)n(-c2ccc(Cl)c(C=CC(=O)OCC(F)(F)F)c2)c1=O — higher, 170 to 172 °C
- Cc1noc(NS(=O)(=O)c2ccccc2-c2ccc(Cn3c(=O)oc4ccccc43)cc2)c1C — higher, 182 to 183 °C
- CNS(=O)(=O)/C=C/c1ccc2c(c1)c(C1CCN(C)CC1)cn2C — higher, 155 to 159 °C
- OCc1cn(Cc2ccc(OCc3ccccc3)cc2)nc1OCc1ccc(OCc2ccccc2)cc1 — higher, 128 to 129 °C
- O=S(=O)(NCCc1ccc(C(O)CCCO)cc1)c1ccccc1Cl (stereo not drawn) — lower, 101 °C
- CNC(=O)Nc1cc(NC(=O)/C=C/c2ccc(C(C)(C)C)cc2)ccc1Cl — higher, 120 to 122 °C
- CC(C)(NCCc1ccccc1)C(O)c1ccccc1 (stereo not drawn) — lower, 103 to 104 °C
- Cc1c(Br)c2c(c3c1C(c1ccc(C(C)C)cc1)CO3)CCCC2 (stereo not drawn) — higher, 108 to 109 °C
- Cc1cc(Oc2ccccc2)c(S(C)(=O)=O)cc1C(=O)N=C(N)N — higher, 248 to 250 °C
- Cc1nc(N2CCCC(CCc3ccccc3)C2=O)sc1C(=O)NCc1ccccc1 (stereo not drawn) — higher, 124 to 126 °C
- N#CCNC(=O)C1CC1 — lower, 91 to 92 °C
- CC[C@H](COC)n1cc(Cl)nc(N2CCc3cc(OC)cc(C#N)c32)c1=O — higher, 141 to 142 °C
- COc1ccc(C(=NOCc2ccccc2)c2cccc([N+](=O)[O-])c2)cc1 — lower, 100 to 101 °C
- CC1(C)C=C(c2ccncc2O)c2ccccc2O1 — higher, 228 to 230 °C
- CN(C)c1nc2[nH]c3c(c(=O)n2n1)SCCC3 — higher, 130 °C
- COc1ccc(C(=O)CC(C#N)c2ccc3c(c2)OCO3)cc1OC (stereo not drawn) — higher, 159 to 161 °C
- COC(=O)c1cc(C2=CCCO2)c(C(F)(F)F)cc1NC(C)=O — higher, 120 to 125 °C
- CC1(C)CN(C2CC3(C)C(CCC4C5CCC(C(=O)CSC#N)C5(C)CC(=O)C43)CC2O)CCO1 (stereo not drawn) — higher, 197 to 198 °C
- Cc1nc(N2CCN(Cc3ccc(F)cc3)C2=O)sc1C(N)=O — higher, 201 to 203 °C
- CCn1cc(C(=O)O)c(=O)c2cc(F)c(N3Cc4ccc(C(=O)OC)cc4C3)cc21 — higher, > 300 °C
- CCC(=O)N1CCC(NC(=O)N[C@@H]2C[C@H]2c2ccccc2)CC1 (relative stereo) — higher, 155 to 158 °C
- CC(C)(NC(=O)C(COCc1ccccc1)NC(=O)c1ccccc1)c1ccccc1 (stereo not drawn) — lower, 88 to 90 °C
- Cc1ccc(-c2n[nH]c(N)c2C#N)cc1 — higher, 173 to 178 °C
- Cc1ccc(S(=O)(=O)O[C@H](C)C(=O)N2C(=O)N(C)C[C@H]2C(=O)OC(C)(C)C)cc1 — lower, 78 to 80 °C
- Cc1cccc(N(CC(=O)OC(C)(C)C)C(=O)CN2C(=O)c3ccccc3C2=O)c1 — higher, 166 °C
- CC(C)(C)NC(=O)NCc1ccc2c(c1)CN(C1CCC(=O)NC1=O)C2=O (stereo not drawn) — higher, 260 to 262 °C
- O=C(NCCOc1ccc(CC(Oc2ccc(-c3ccccn3)cc2)C(=O)O)cc1)c1ccc(-c2ccccn2)cc1 (stereo not drawn) — lower, 98 to 101 °C
- COc1ccc2c(CC3=C(CC(=O)O)CCCC3=O)cccc2c1C(F)(F)F — lower, 69 to 71 °C
- CC(C)c1cccc(C(C)C)c1NC(=O)NCC1(O)CCc2ccccc21 (stereo not drawn) — higher, 173 to 174 °C
- CC(c1ccccn1)C(O)(Cn1cncn1)c1ccc(F)cc1F (stereo not drawn) — higher, 146 to 148 °C
- N#CC(C(=O)NCc1ccccc1Cl)C(=O)c1nn(-c2ccccc2)c2c1CSc1ccccc1-2 (stereo not drawn) — higher, 228 to 230 °C
- O=C(O)CP(=O)(O)CCCCc1ccccc1 — higher, 110 °C
- COc1cc(CCCC2OC(=O)NC2=O)ccc1OCc1nc(-c2ccccc2)oc1C (stereo not drawn) — higher, 161 to 162 °C
- CC(C)(C)SC1CC(=O)N1CC(=O)OCc1ccc([N+](=O)[O-])cc1 (stereo not drawn) — lower, 82.5 to 84 °C
- FC(F)Oc1ccc(C2=NNCC2c2ccccc2)cc1 (stereo not drawn) — lower, 65 to 75 °C
- Fc1ccc([C@H]2CC[C@H](N3CCN(Cc4ccccc4)CC3)CC2)c2ccccc12 — higher, 130 to 132 °C
- Cc1cc(C2=NOC(c3cc(Cl)cc(Cl)c3)(C(F)(F)F)C2O)ccc1C(=O)O (stereo not drawn) — higher, 215 to 217 °C
- COC(=O)c1cccc([N+](=O)[O-])c1NC(=O)OC(C)(C)C — lower, 92 to 94 °C
- CCN(CC)CCOc1ccc2c3c(cccc13)C(=O)c1c-2oc2ccccc12 — higher, 115 to 118 °C
- O=CNNc1ccc(NC(=O)c2cccc(N=C=S)c2)cc1 — higher, > 290 °C
- CN(C)C1=NCc2ccc(Cl)cc2O1 — higher, 118 to 120 °C
- CCc1nn(Cc2nccn2C)c2c(=O)[nH]c(-c3cc(S(C)(=O)=O)ccc3OCC(C)C)nc12 — higher, 253 to 254 °C
- OCc1c[nH]c(=S)n1[C@H]1CCc2c(F)cc(F)cc2C1 — higher, 206 to 207 °C
- COc1cccc(-c2cccc3c2C(=O)OC(C)(C)O3)n1 — higher, 130 to 132 °C
- CC(=O)Nc1nc(NC(C)=O)nc(-c2ccc(-c3ccccc3)cc2)n1 — higher, > 260 °C
- CCOC(=O)C1=CC(C)(C(=O)N(C)C)SC1N (stereo not drawn) — higher, 122 to 124 °C
- O=C1c2ccccc2C(O)N1CCBr (racemic) — higher, 123 to 124 °C
- COC(=O)c1ccc(S(C)(=O)=O)c(C)c1Cl — not separable, 107 to 108 °C
- C=CCc1c(SC(C)=O)[nH]c(-c2ccc(Cl)cc2)c1-c1ccc(Cl)cc1 — higher, 131 to 132 °C
- CCn1nc(-c2ncc(N)nc2-c2ccccc2)ccc1=O — higher, 227 to 229 °C
- N#Cc1ccc(F)cc1-c1cc(-c2cnc3nc(C(F)(F)F)cnn23)ccc1F — higher, 200 to 201 °C
- CC(C)OC(=O)NC12CC1CN(Cc1ccccc1)C2 (stereo not drawn) — lower, 88 °C
- CCCc1cc2c(=O)n3cc(C#N)ccc3nc2s1 — higher, 217 to 218 °C
- COc1ccc(C(=O)c2ccccc2F)c(Cl)c1 — lower, 77 to 79 °C
- O=c1cc(-c2ccc(OCc3ccccc3)c(OCc3ccccc3)c2)oc2cc(OCC3CO3)ccc12 (stereo not drawn) — higher, 168 to 170 °C
- CCOc1cccc(-c2nc3ccc(C(=O)O)cc3c(=O)[nH]2)c1OCC — higher, > 320 °C
- COc1ccc(C2(C#N)CCC(CC(=O)O)CC2)c2c1OCCO2 (stereo not drawn) — higher, 149 to 150 °C
- O=C1NC(=O)C(CCCCCc2ccc(O)cc2)O1 (stereo not drawn) — lower, 96 to 97 °C
